Legend:
Format in all cases: in vivo
[1] = system: Amaranthus retroflexus (AMARE); experiment: B. Herbicidal post-emergence efficacy, AMARE
Procedure: (§1) Seeds of mono- and dicotyledonous weed plants were placed in plastic pots in sandy loam soil (doubly sown with in each case one species of mono- or dicotyledonous weed plants per pot), covered with soil and cultivated in a greenhouse under controlled growth conditions. 2 to 3 weeks after sowing, the test plants were treated at the one-leaf stage. The compounds of the invention, formulated in the form of wettable powders (WP) or as emulsion concentrates (EC), were applied onto the green parts of the plants as aqueous suspension or emulsion with addition of 0.5% additive at a water application rate of 600 liters per hectare (converted). After the test plants had been kept in the greenhouse under optimum growth conditions for about 3 weeks, the activity of the preparations was rated visually in comparison to untreated controls.
(§2) For example, • 100% efficacy=plants have died, • 0% efficacy=like untreated control plants
(§3) Tables B1a to B12c below show the effects of selected inventive compounds of the general formula (I) according to table 1 on various harmful plants at an application rate corresponding to 1280 g/ha or less, which were obtained by the experimental procedure mentioned above.

[2] = system: Veronica persica (VERPE); experiment: B. Herbicidal post-emergence efficacy, VERPE
Procedure: as §1, §2, §3

[3] = system: Amaranthus retroflexus (AMARE); experiment: A. Herbicidal pre-emergence efficacy, AMARE
From the text: (§4) Seeds of mono- and dicotyledonous weed plants were placed in plastic pots in sandy loam soil (doubly sown with one species each of mono- or dicotyledonous weed plants per pot) and covered with soil. The compounds of the invention, formulated in the form of wettable powders (WP) or as emulsion concentrates (EC), were then applied onto the surface of the covering soil as aqueous suspension or emulsion with addition of 0.5% additive at a water application rate of 600 liters per hectare (converted). After the treatment, the pots were placed in a greenhouse and kept under good growth conditions for the test plants. After about 3 weeks, the efficacy of the preparations was scored visually in comparison with untreated controls as percentages.
(§5) For example, • 100% efficacy=plants have died, • 0% efficacy=like untreated control plants.
(§6) Tables A1a to A12c below show the effects of selected compounds of the general formula (I) according to table 1 on various harmful plants at an application rate corresponding to 1280 g/ha or less, which were obtained by the experimental procedure mentioned above.

[4] = system: Digitaria sanguinalis (DIGSA); experiment: A. Herbicidal pre-emergence efficacy, DIGSA; details: scored visually after about 3 weeks vs untreated controls
From the text: as §4, §5, §6

[5] = system: Setaria viridis (SETVI); experiment: A. Herbicidal pre-emergence efficacy, SETVI
From the text: as §4, §5, §6

[6] = system: Echinochloa crus-galli (ECHCG); experiment: A. Herbicidal pre-emergence efficacy, ECHCG; details: 1280 g/ha; scored visually after about 3 weeks vs untreated controls
From the text: as §4, §5, §6

[7] = system: Kochia scoparia (KCHSC); experiment: A. Herbicidal pre-emergence efficacy, KCHSC
From the text: as §4, §5, §6

[8] = system: Stellaria media (STEME); experiment: A. Herbicidal pre-emergence efficacy, STEME
From the text: as §4, §5, §6

[9] = system: Poa annua (POAAN); experiment: B. Herbicidal post-emergence efficacy, POAAN; details: 1280 g/ha
Procedure: as §1, §2, §3

[10] = system: Stellaria media (STEME); experiment: B. Herbicidal post-emergence efficacy, STEME
Procedure: as §1, §2, §3

[11] = system: Abutilon theophrasti (ABUTH); experiment: B. Herbicidal post-emergence efficacy, ABUTH; details: rated visually after about 3 weeks
Procedure: as §1, §2, §3

[12] = system: Veronica persica (VERPE); experiment: A. Herbicidal pre-emergence efficacy, VERPE; details: 1280 g/ha
From the text: as §4, §5, §6

[13] = system: Echinochloa crus-galli (ECHCG); experiment: B. Herbicidal post-emergence efficacy, ECHCG; details: rated visually after about 3 weeks
Procedure: as §1, §2, §3

[14] = system: Poa annua (POAAN); experiment: A. Herbicidal pre-emergence efficacy, POAAN
From the text: as §4, §5, §6

[15] = system: Kochia scoparia (KCHSC); experiment: B. Herbicidal post-emergence efficacy, KCHSC; details: for Post-emergence efficacy against KCHSC in %: rated visually after about 3 weeks; for Post-emergence efficacy against KCHSC: 1280 g/ha
Procedure: as §1, §2, §3

[16] = system: Abutilon theophrasti (ABUTH); experiment: A. Herbicidal pre-emergence efficacy, ABUTH; details: 1280 g/ha; scored visually after about 3 weeks vs untreated controls
From the text: as §4, §5, §6

[17] = pre-emergence, dosage 1280 g/ha

Compound | Post-emergence efficacy against AMARE ([1]; 1280 g/ha) [%] | Post-emergence efficacy against VERPE ([2]; 1280 g/ha) [%] | Post-emergence efficacy against AMARE ([1]; 80 g/ha) [%] | Post-emergence efficacy against AMARE ([1]; 320 g/ha) [%] | Pre-emergence efficacy against AMARE in % ([3]; 320 g/ha) [%] | Pre-emergence efficacy against AMARE in % ([3]; 1280 g/ha) [%] | Pre-emergence efficacy against DIGSA ([4]; 320 g/ha) [%] | Pre-emergence efficacy against DIGSA ([4]; 1280 g/ha) [%] | Post-emergence efficacy against VERPE ([2]; 80 g/ha) [%] | Post-emergence efficacy against VERPE ([2]; 320 g/ha) [%] | Pre-emergence efficacy against SETVI ([5]; dosage 1280 g/ha) [%] | Pre-emergence efficacy against ECHCG [6] [%] | Pre-emergence efficacy against KCHSC [7, 17] [%] | Pre-emergence efficacy against STEME ([8]; dosage 1280 g/ha) [%] | Post-emergence efficacy against POAAN [9] [%] | Post-emergence efficacy against STEME ([10]; 1280 g/ha) [%] | Post-emergence efficacy against ABUTH in % ([11]; 1280 g/ha) [%] | Pre-emergence efficacy against POAAN ([14]; dosage 1280 g/ha) [%] | Post-emergence efficacy against KCHSC in % ([15]; 320 g/ha) [%] | Post-emergence efficacy against KCHSC [15] [%] | other results
O=[N+]([O-])c1ccc(Oc2ccccc2OS(=O)(=O)CCCCl)nc1 [Example I-62] | 90 | 90 |  |  |  |  |  |  |  |  |  |  |  |  |  |  |  |  |  |  | 
O=S(=O)(CCCCl)Oc1ccccc1Oc1ncc(Cl)cc1F [Example I-64] | 90 | 90 | 90 | 90 | 90 | 100 | 90 | 100 | 90 | 90 | 100 | 100 | 90 | 90 | 90 | 90 | 90 | 100 | 90 | 90 | Post-emergence efficacy against ABUTH in % ([11]; 320 g/ha): 90%; Pre-emergence efficacy against VERPE in % [12]: 100%; Post-emergence efficacy against ECHCG in % ([13]; 1280 g/ha): 90%; Post-emergence efficacy against KCHSC in % ([15]; 80 g/ha): 90%
O=S(=O)(CC(F)(F)F)Oc1ccccc1Oc1ncc(Cl)cn1 [Example I-4] | 90 | 100 |  |  |  | 100 |  |  |  | 90 |  |  | 100 |  | 90 | 90 | 90 |  |  | 90 | 
O=S(=O)(CCCCl)Oc1ccccc1Oc1ncc(Br)cc1F [Example I-65] | 90 | 90 |  | 90 |  | 100 |  | 90 |  |  |  |  |  |  |  | 90 | 90 | 90 |  |  | 
O=S(=O)(CCCCl)Oc1ccccc1Oc1ccc(Cl)cn1 [Example I-27] | 100 | 90 |  | 90 | 90 | 90 | 90 | 100 |  | 90 | 100 | 90 | 100 | 90 |  | 90 |  | 90 |  | 90 | Pre-emergence efficacy against SETVI ([5]; dosage 320 g/ha): 100%; Pre-emergence efficacy against ABUTH [16]: 90%; Pre-emergence efficacy against VERPE in % [12]: 90%; Pre-emergence efficacy against POAAN ([14]; dosage 320 g/ha): 90%
O=S(=O)(CC1CC1(Cl)Cl)Oc1c(Br)cccc1Oc1ncc(Cl)cn1 (stereo not shown) [Example I-77] | 100 | 100 | 100 | 100 | 100 | 100 | 90 | 100 | 100 | 100 | 100 |  |  | 90 |  | 90 | 100 | 100 | 90 | 100 | Pre-emergence efficacy against SETVI ([5]; dosage 320 g/ha): 90%; Post-emergence efficacy against ABUTH in % ([11]; 80 g/ha): 90%; Post-emergence efficacy against ABUTH in % ([11]; 320 g/ha): 90%; Post-emergence efficacy against ECHCG in % ([13]; 320 g/ha): 90%; Post-emergence efficacy against ECHCG in % ([13]; 1280 g/ha): 100%; Pre-emergence efficacy against POAAN ([14]; dosage 320 g/ha): 100%; Post-emergence efficacy against KCHSC in % ([15]; 80 g/ha): 90%
O=S(=O)(CC=C(Cl)Cl)Oc1c(Br)cccc1Oc1ncc(Cl)cn1 [Example I-84] | 100 | 100 | 90 | 100 | 90 | 100 |  |  | 100 | 100 | 100 |  | 90 |  |  | 100 | 90 |  | 90 | 100 | 
O=S(=O)(CCCC(F)(F)C(F)(F)F)Oc1c(Br)cccc1Oc1ncc(Cl)cn1 [Example I-67] | 100 | 100 | 100 | 100 | 100 | 100 |  | 90 | 90 | 100 | 100 |  | 100 |  | 100 | 100 | 100 |  | 100 | 100 | Post-emergence efficacy against STEME ([10]; 320 g/ha): 100%; Post-emergence efficacy against ABUTH in % ([11]; 80 g/ha): 90%; Post-emergence efficacy against ABUTH in % ([11]; 320 g/ha): 90%; Pre-emergence efficacy against VERPE in % [12]: 100%; Post-emergence efficacy against KCHSC in % ([15]; 80 g/ha): 90%
O=[N+]([O-])c1cnc(Oc2ccccc2OS(=O)(=O)CCCCl)c(F)c1 [Example I-61] | 90 | 90 | 90 | 90 |  |  |  |  |  |  |  | 100 |  |  |  | 90 |  |  | 90 | 90 | 
O=S(=O)(CCCCl)Oc1ccccc1Oc1ccc(C(F)(F)F)cn1 [Example I-63] | 90 | 90 |  |  |  |  |  |  |  |  |  |  |  |  |  |  |  |  |  |  | 
O=S(=O)(Oc1ccccc1Oc1ncc(Cl)cn1)C1CC1 [Example I-21] | 100 | 100 | 90 | 100 | 100 | 100 | 100 | 100 | 90 | 100 | 100 | 100 | 100 | 100 | 100 | 100 |  | 100 | 100 | 100 | Pre-emergence efficacy against AMARE in % ([3]; 80 g/ha): 100%; Pre-emergence efficacy against KCHSC ([7]; 80 g/ha, scored visually after about 3 weeks vs untreated controls): 90%; Pre-emergence efficacy against KCHSC ([7]; pre-emergence, dosage 320 g/ha): 100%; Pre-emergence efficacy against STEME ([8]; dosage 320 g/ha): 100%; Pre-emergence efficacy against ABUTH [16]: 100%; Post-emergence efficacy against STEME ([10]; 320 g/ha): 90%; Pre-emergence efficacy against VERPE in % [12]: 90%; Pre-emergence efficacy against POAAN ([14]; dosage 320 g/ha): 100%; Post-emergence efficacy against KCHSC in % ([15]; 80 g/ha): 90%
N#Cc1ccc(Oc2ccccc2OS(=O)(=O)CCCCl)nc1 [Example I-58] | 90 | 90 | 90 | 90 |  |  |  | 90 |  |  |  |  | 90 |  |  |  | 90 |  |  | 90 | Pre-emergence efficacy against ABUTH [16]: 90%
CCCCS(=O)(=O)Oc1c(OC)cccc1Oc1ncc(Cl)cn1 [Example I-17] |  |  |  |  |  |  |  |  |  |  |  |  |  | 90 |  |  |  |  |  |  | 
